Experimental findings from publication PMC3391414 (Journal of Agricultural and Food Chemistry, 2011) are described below.

Each structure is given as a SMILES string.

For one data set, the target named is T1, UGT2B7 (Homo sapiens, UniProt P16662).
T1 sequence (P16662 24-529): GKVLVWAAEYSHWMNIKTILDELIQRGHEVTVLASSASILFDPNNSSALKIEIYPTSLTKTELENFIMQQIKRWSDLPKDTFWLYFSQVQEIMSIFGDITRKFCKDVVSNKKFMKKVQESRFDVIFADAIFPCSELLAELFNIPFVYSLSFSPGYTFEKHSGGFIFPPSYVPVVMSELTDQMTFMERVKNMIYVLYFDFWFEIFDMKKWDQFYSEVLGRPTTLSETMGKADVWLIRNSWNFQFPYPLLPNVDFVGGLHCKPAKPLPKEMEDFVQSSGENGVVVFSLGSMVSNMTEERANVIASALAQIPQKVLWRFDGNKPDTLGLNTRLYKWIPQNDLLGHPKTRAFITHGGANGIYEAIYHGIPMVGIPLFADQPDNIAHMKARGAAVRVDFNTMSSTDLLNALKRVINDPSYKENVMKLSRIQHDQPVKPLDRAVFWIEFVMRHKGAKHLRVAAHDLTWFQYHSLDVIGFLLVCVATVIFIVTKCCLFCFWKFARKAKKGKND
Description: Glucuronidation by recombinant human UGT2B7. As to conditions: UGT2B7, substrate 10 μM.

The next data set has as its target T2, UGT1A10 (Homo sapiens, UniProt Q9HAW8).
T2 sequence (Q9HAW8 26-530): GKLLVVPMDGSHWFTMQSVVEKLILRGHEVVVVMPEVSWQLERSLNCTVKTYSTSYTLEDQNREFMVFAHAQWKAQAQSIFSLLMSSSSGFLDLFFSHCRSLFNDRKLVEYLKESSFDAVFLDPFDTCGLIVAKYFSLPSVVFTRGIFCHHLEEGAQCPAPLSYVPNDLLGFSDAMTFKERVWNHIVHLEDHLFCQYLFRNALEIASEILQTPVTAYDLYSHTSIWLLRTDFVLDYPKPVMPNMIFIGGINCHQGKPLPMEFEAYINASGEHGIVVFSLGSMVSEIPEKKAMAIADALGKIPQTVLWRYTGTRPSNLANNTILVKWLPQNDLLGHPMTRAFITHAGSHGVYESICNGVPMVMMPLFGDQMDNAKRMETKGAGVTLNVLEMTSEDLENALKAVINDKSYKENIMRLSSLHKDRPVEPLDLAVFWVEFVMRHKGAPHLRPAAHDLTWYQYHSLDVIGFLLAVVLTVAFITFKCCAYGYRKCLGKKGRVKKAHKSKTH
Description: Glucuronidation by recombinant human UGT1A10. The following applies: UGT1A10, substrate 10 μM.

In another data set the target is T3, UGT1A3 (Homo sapiens, UniProt P35503).
T3 sequence (P35503 29-534): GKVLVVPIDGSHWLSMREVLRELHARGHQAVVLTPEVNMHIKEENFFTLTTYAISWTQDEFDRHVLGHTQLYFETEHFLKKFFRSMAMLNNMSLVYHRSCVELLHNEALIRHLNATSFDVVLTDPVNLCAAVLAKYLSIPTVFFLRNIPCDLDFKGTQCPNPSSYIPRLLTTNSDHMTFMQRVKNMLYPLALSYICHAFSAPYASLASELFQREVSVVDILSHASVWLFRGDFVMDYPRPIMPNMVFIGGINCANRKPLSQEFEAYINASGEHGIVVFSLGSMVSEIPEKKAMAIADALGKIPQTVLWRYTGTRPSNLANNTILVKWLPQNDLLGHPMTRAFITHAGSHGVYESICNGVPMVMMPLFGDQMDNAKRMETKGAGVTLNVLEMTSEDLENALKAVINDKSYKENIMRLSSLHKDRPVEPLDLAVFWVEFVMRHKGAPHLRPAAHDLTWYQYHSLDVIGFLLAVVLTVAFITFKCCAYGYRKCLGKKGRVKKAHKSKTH
As to conditions: pH 7.4.

The target of a further data set is T4, UGT1A8 (Homo sapiens, UniProt Q9HAW9).
T4 sequence (Q9HAW9 26-530): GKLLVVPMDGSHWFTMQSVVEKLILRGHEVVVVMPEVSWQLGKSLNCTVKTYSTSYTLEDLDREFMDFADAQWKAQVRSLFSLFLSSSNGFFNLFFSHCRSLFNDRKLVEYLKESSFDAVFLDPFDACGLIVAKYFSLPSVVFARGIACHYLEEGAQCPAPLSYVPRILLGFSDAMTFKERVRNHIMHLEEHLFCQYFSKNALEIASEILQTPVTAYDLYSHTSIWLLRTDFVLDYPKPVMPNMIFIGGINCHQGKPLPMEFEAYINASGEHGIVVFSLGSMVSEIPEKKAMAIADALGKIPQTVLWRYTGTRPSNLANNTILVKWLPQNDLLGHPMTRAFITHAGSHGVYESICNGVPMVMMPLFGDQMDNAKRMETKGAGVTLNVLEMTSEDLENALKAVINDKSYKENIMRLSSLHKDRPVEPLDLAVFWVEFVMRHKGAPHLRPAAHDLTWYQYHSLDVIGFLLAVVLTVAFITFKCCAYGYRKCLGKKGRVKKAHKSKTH
The following applies: 10 μM, pH 7.4.

Another data set concerns the target T5, UGT1A9 (Homo sapiens, UniProt O60656).
T5 sequence (O60656 26-530): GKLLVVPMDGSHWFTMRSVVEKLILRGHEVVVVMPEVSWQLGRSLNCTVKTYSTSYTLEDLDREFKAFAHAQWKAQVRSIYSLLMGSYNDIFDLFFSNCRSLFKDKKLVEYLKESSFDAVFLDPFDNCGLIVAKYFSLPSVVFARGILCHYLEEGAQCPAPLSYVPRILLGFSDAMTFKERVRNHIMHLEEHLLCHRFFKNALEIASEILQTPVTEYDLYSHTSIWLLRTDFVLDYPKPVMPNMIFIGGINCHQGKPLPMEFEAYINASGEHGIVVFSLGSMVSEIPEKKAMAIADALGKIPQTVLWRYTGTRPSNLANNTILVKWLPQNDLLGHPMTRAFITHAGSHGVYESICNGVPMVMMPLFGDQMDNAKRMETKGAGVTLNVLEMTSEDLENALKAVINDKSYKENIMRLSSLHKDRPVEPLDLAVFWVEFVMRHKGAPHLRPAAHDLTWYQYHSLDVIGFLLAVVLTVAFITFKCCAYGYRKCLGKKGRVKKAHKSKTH
As to conditions: pH 7.4.

Consider `O=c1c(O)c(-c2ccc(O)cc2)oc2cc(O)cc(O)c12` [5,7,4'THFnol, 3,5,7,4’-tetrahydroxyflavone], for which the Hydroxyl positions glucuronidated result was “glucuronidated only 7-O and 4’-O” at UGT2B7; “glucuronidated 3-O, 7-O and 4’-O” on UGT1A10.
In the case of `O=c1cc(-c2ccccc2)oc2cc(O)cc(O)c12` [5,7DHF, 5,7-dihydroxyflavone], the “Degree of regiospecificity (major glucuronide in bracket)” value at UGT1A3 (2.5 μM) and at UGT1A9 (2.5 μM) was “Dominant (7-O)” in each case. Besides, the Hydroxyl positions glucuronidated result on UGT1A3 (10 μM), on UGT1A8 and at UGT1A9 (10 μM) was “glucuronidated 7-O position only” each time.
